Results on 15 compounds are retold here after the supplement of paper PMC5752671.

Holding throughout (assay): IC50 (cell viability) (log10 M)
What all share (settings): 4 days

In one test the test system is SKM1. The method, boiled down:
(§1)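 Fourteen leukemia cell lines were plated on extracellular-matrix-coated 384-well plates. Drugs were added robotically the next day at eight concentrations spanning 4–5 logs within 10^–12–10^–4 M, tailored per drug, in duplicate. Viability was read with CellTiter-Glo after 4 days. IC50 is the concentration where a fitted four-parameter curve crosses 50% viability, in log10 M; where that is not reached, the highest tested concentration is entered.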

The next test relates to MOLM/13. The method, boiled down:
as §1

The next test concerns EOL-1. The procedure, abridged: as §1
Another test deals with THP-1. The procedure, abridged:
as §1

A further test relates to KASUMI1. The method, boiled down:
as §1

In the next test the test system is NB4. The method, boiled down:
as §1

A further test has as its system OCI-AML2. The procedure, abridged:
as §1

The subject of another test is KG1. The procedure, abridged:
as §1

A further test has as its system MV4.11. The method, boiled down: as §1
In a further test the test system is U937. The procedure, abridged:
as §1

Where a name gives a salt, the structure may show the parent alone. A value given as a limit tells only on which side of the number the result lay.

For `COc1cc(OC)c(/C=C/S(=O)(=O)Cc2ccc(OC)c(NCC(=O)O)c2)c(OC)c1`, the “IC50 (log10 M)” value with SKM1 was -7.05; in the test on MOLM/13 it was -7.17; with EOL-1 it was -7.51; in the test on THP-1, -7.33; with KASUMI1, -6.87; in the test with NB4, -7.28. For the same compound, the “IC50 (log10 M)” value with OCI-AML2 is -7.47; in the test with KG1 it was -7; in the test on MV4.11, -7.3; in the test with U937, -7.57.

`COc1cc2ncnc(Nc3ccc(F)c(Cl)c3)c2cc1OCCCN1CCOCC1` [Gefitinib]: the “IC50 (log10 M)” value was > -5 in the test with SKM1; -5.18 in the test on MOLM/13; -5.5 with EOL-1; > -5 with THP-1; > -5 with KASUMI1; > -5 with NB4. In addition, the “IC50 (log10 M)” value in the test on OCI-AML2 was > -5; in the test with KG1 it was -5.01; in the test on MV4.11 it was -5.48; in the test with U937, > -5.

As to `CS(=O)(=O)N1CCN(Cc2cc3nc(-c4cccc5[nH]ncc45)nc(N4CCOCC4)c3s2)CC1` [GDC-0941], the “IC50 (log10 M)” value is -6.37 with SKM1; -5.8 in the test with MOLM/13; -6.95 with EOL-1; -5.71 with THP-1; -7.01 with KASUMI1; -5.49 in the test on NB4. The “IC50 (log10 M)” value with OCI-AML2 is -5.68; with KG1 it was -5.35; in the test on MV4.11, -6.15; in the test with U937, -6.26.

As to `CCNC(=O)c1noc(-c2cc(C(C)C)c(O)cc2O)c1-c1ccc(CN2CCOCC2)cc1` [NVP-AUY-922], the “IC50 (log10 M)” value in the test with SKM1 was -8.91; in the test with MOLM/13, -7.27; in the test with EOL-1, -9.55; in the test on THP-1, -8.49; in the test with KASUMI1 it was -9.19; with NB4, -8.86. Also, the “IC50 (log10 M)” value in the test on OCI-AML2 is -9.28; with KG1 it was -8.55; with MV4.11, -9.64; with U937, -9.02.

Take `Cc1nc(Nc2ncc(C(=O)Nc3c(C)cccc3Cl)s2)cc(N2CCN(CCO)CC2)n1` [Dasatinib]: the “IC50 (log10 M)” value with SKM1 is > -5; in the test on MOLM/13, -5.55; with EOL-1, -7.46; in the test on THP-1, > -5; in the test with KASUMI1, > -5; in the test on NB4, > -5. Further, the “IC50 (log10 M)” value is -5.37 with OCI-AML2, -5.39 with KG1, -5.37 in the test on MV4.11 and > -5 with U937.

In the case of `O=C1NC(=O)[C@@H](c2cn3c4c(cccc24)CCC3)[C@@H]1c1c[nH]c2ccccc12` [ARQ-197], the “IC50 (log10 M)” value in the test with SKM1 was -6.24; in the test on MOLM/13, -6.57; with EOL-1, -6.74; with THP-1 it was -6.66; in the test with KASUMI1 it was -6.31; with NB4 it was -6.94. Moreover, the “IC50 (log10 M)” value is -6.23 in the test on OCI-AML2, -6.48 in the test with KG1, -6.32 in the test with MV4.11 and -7.23 in the test on U937.

Take `Nc1nc(F)nc2c1ncn2[C@@H]1O[C@H](CO)[C@@H](O)[C@@H]1O` [Fludarabine]: the “IC50 (log10 M)” value with SKM1 was -5.13; with MOLM/13 it was -5.23; in the test on EOL-1, -5.77; in the test with THP-1 it was > -5; in the test on KASUMI1 it was -5.19; in the test on NB4, > -5. Also, the “IC50 (log10 M)” value in the test on OCI-AML2 is -5.56; in the test on KG1 it was -5.01; in the test on MV4.11, -5.34; in the test on U937, -5.74.

For the compound `C[C@@]1(C(=O)Nc2ccc(F)nc2)CCCN1c1nc(Nc2cc(C3CC3)n[nH]2)c2cccn2n1`, the “IC50 (log10 M)” value was -6.18 in the test with SKM1; -6.18 with MOLM/13; -6.59 with EOL-1; -5.79 with THP-1; -6.88 in the test with KASUMI1; -6.61 in the test on NB4. Moreover, the “IC50 (log10 M)” value is -6.15 in the test with OCI-AML2, -6.35 in the test with KG1, -6.27 in the test with MV4.11 and -6.61 in the test on U937.

On to `CN(C)CCCn1cc(C2=C(c3c[nH]c4ccccc34)C(=O)NC2=O)c2ccccc21`, for which the “IC50 (log10 M)” value in the test with SKM1 is -5.35; with MOLM/13, -5.97; with EOL-1, -6.69; in the test with THP-1, > -5; in the test with KASUMI1, -5.1; with NB4 it was > -5. Also, the “IC50 (log10 M)” value with OCI-AML2 is -5.41; in the test with KG1, > -5; with MV4.11, -6.66; with U937, > -5.

Consider `FC(F)(F)c1ccc(/C=C/c2nc(COc3ccc(CCCCn4ccnn4)cc3)co2)cc1` [Mubritinib], for which the “IC50 (log10 M)” value in the test with SKM1 was > -5; in the test on MOLM/13 it was > -5; in the test on EOL-1, -7.63; in the test with THP-1 it was > -5; in the test on KASUMI1 it was > -5; in the test with NB4 it was -6.42. Also, the “IC50 (log10 M)” value was > -5 in the test with OCI-AML2, > -5 in the test with KG1, > -5 in the test with MV4.11 and -7.27 in the test on U937.

On to `COc1cc(Nc2ncc3c(n2)-c2ccc(Cl)cc2C(c2c(F)cccc2OC)=NC3)ccc1C(=O)O` [MLN8237], for which the “IC50 (log10 M)” value was > -5 in the test on SKM1; -7.95 in the test on MOLM/13; < -8.48 in the test on EOL-1; < -8.48 in the test on THP-1; -7.53 in the test on KASUMI1; -8.21 in the test on NB4. Further, the “IC50 (log10 M)” value is -7.51 with OCI-AML2, -7.99 in the test with KG1, -7.92 in the test with MV4.11 and < -8.48 in the test with U937.

In the case of `CO[C@H]1C[C@@H]2CC[C@@H](C)[C@@](O)(O2)C(=O)C(=O)N2CCCC[C@H]2C(=O)O[C@H]([C@H](C)C[C@@H]2CC[C@@H](OCCO)[C@H](OC)C2)CC(=O)[C@H](C)/C=C(\C)[C@@H](O)[C@@H](OC)C(=O)[C@H](C)C[C@H](C)/C=C/C=C/C=C/1C` [Everolimus], the “IC50 (log10 M)” value with SKM1 was -5.4; in the test on MOLM/13, -5.39; in the test on EOL-1, -8.2; with THP-1, > -5; in the test on KASUMI1, > -5; in the test with NB4, > -5. Besides, the “IC50 (log10 M)” value in the test with OCI-AML2 was -5.02; with KG1, > -5; in the test on MV4.11 it was -6; in the test on U937, -7.7.

As for `C#Cc1cccc(Nc2ncnc3cc(OCCOC)c(OCCOC)cc23)c1` [Erlotinib HCl], the “IC50 (log10 M)” value was -5.01 with SKM1; -5.14 with MOLM/13; -5.67 with EOL-1; > -5 with THP-1; > -5 in the test with KASUMI1; > -5 with NB4. Also, the “IC50 (log10 M)” value with OCI-AML2 was > -5; in the test on KG1, -5.31; with MV4.11, -5.42; with U937 it was -5.02.

Regarding `C[C@@H](Oc1cc(-c2cnn(C3CCNCC3)c2)cnc1N)c1c(Cl)ccc(F)c1Cl` [Crizotinib], the “IC50 (log10 M)” value was -5.49 with SKM1; -5.75 with MOLM/13; -5.82 with EOL-1; -5.41 in the test with THP-1; -5.64 in the test on KASUMI1; -5.61 with NB4. Further, the “IC50 (log10 M)” value was -5.5 in the test with OCI-AML2, -5.49 in the test on KG1, -5.68 with MV4.11 and -5.61 with U937.

On to `CCc1c2c(nc3ccc(OC(=O)N4CCC(N5CCCCC5)CC4)cc13)-c1cc3c(c(=O)n1C2)COC(=O)[C@]3(O)CC` [Irinotecan HCl], for which the “IC50 (log10 M)” value was -5.41 in the test on SKM1; -5.77 in the test with MOLM/13; -6.09 in the test with EOL-1; -5.37 in the test with THP-1; -5.07 in the test on KASUMI1; -5.8 with NB4. The “IC50 (log10 M)” value with OCI-AML2 was -5.55; in the test on KG1, -5.43; in the test with MV4.11, -6.08; with U937 it was -5.47.
